Laboratory results published in US20240226096A1, “TREATMENT OF MYELOPROLIFERATIVE DISEASES AND DISORDERS WITH INHIBITORS OF BET FAMILY BDII BROMODOMAIN” (POSEIDON INNOVATION 1, INC., priority 2022, published 2024).

Tests used:
[1] = tested on: SET-2 cell line; assay: SET-2 cell line proliferation assay (CellTiter-Glo), combination study; assay type: cell-based; conditions: 96 hours, FIG. 2
Procedure: (§1) Test compounds are dissolved at 10 mM DMSO stock solution. Transfer 45 uL of stock solution to a 384 PP-plate. Perform 3 fold, 10-point dilution via transferring 15 uL compound into 30 μL DMSO by using TECAN (EVO200) liquid handler. The plates are spin at room temperature at 1,000 RPM for 1 minute and shake at a plate shaker for 2 minutes. Transfer Compound A and Compound B of diluted compound from compound source plate into the cell plate by using liquid handler Echo665. Harvest the cells from flask into cell culture medium and then count the cell number. Dilute the cells with culture medium to the desired density and 40 μL of cell suspension is added into 384-well plate contain compound. Low control is adding cell culture medium. The final seeding density for SET-2 and BaF3-EPOR-JAK2V617F cell lines are 2,000 cells/well and 1000 cells/well respectively. Cover the plates with lid and mix the plate on orbital shaker (700-900 rpm) for 1 min, transfer the plates into 37° C. 5% CO2 incubator for 4 days culture. After compound treatment for 96 hours, remove the plate from incubators and equilibrated at room temperature for 15 minutes. Add CellTiter-Glo reagent into each well.
(§2) Place the plate on an orbital shaker, and shake at 500-700 rpm to facilitate cell lysis and ATP extraction from the cells. Measure luminescence after 5-10 minutes using BMG.

[2] = tested on: BaF3-EPOR-JAK2V617F cell line; assay: BaF3-JAK2(V617F)-EPOR cell line proliferation assay (CellTiter-Glo), combination study; assay type: cell-based; conditions: 96 hours, FIG. 1
Procedure: as §1, §2

[3] = in combination with Ruxolitinib

Cn1ccn(-c2ccc(-c3cc(F)cc(-c4cccc(N5CCN(C(C)(C)C)CC5)c4)c3O)cc2Cl)c1=O [Compound I-1, 1-(3″-(4-(tert-butyl)piperazin-1-yl)-3-chloro-5′-fluoro-2′-hydroxy-[1,1′:3′,1″-terphenyl]-4-yl)-3-methyl-1,3-dihydro-2H-imidazol-2-one]
suppresses proliferation: proliferation of the SET-2 cell line ([1]; compound alone) | proliferation of the SET-2 cell line [1, 3] | proliferation of the BaF3-EPOR-JAK2V617F cell line ([2]; compound alone) | proliferation of the BaF3-EPOR-JAK2V617F cell line [2, 3]
